In patent publication US20230211020A1, “TREATMENT OF INFECTIONS” (ACT Therapeutics Ltd, priority 2020, published 2023):

Experiments:
[1] = system: methicillin susceptible strain of Staphylococcus aureus; experiment: Neutropenic staphylococcal thigh infection model, Levofloxacin with or without ACT (Example 3); type: in vivo; settings: mice, dose-response study, read-out: ED50 (dose that induces a half maximal decline in bacterial density)
Description: An established experimental model of staphylococcal thigh infection in a neutropenic thigh infection model was used and neutropenia will be induced with cyclophosphamide. The thigh infection model provides a sensitive experimental system for initial studies of antimicrobial efficacy in a mammalian system. This model is the most standardised for the evaluation of antimicrobial-microbial interactions combined with antimicrobial pharmacokinetics assessed in serum and tissues samples.
The challenge isolate was methicillin susceptible strain of Staphylococcus aureus is and both thighs were inoculated. Treatment was initiated 2 h after inoculation, thighs was harvested after 26 h and the bacterial density (colony forming units, CFU) in the excised tissue was determined. An initial dose finding study was performed to define the LEV ED50 (the dose that induces a half maximal decline in bacterial density). Within the study, LEV was be dosed intraperitoneal at 20 mg/kg.
The cluster composition investigated was as detailed in Example 1. […]
The bacterial density in the thighs harvested from the various groups was determined by growing a diluted sample of the excised tissue, homogenized in sterile PBS, on a plate with growth medium and counting the number of CFU.

[2] = system: T. saginata and Taenia solium (pork tapeworm) infection; settings: in vivo; cited from earlier work
[3] = Tissue specific uptake of Evans Blue in thigh muscle with ACT (Example 2, Study 1); type: in vivo; settings: for EB ratio of the left (treated) to right (untreated) thigh muscle, average±SD: 30 min after treatment; for increase in the uptake upon ACT treatment: US insonated tissue vs. untreated
Protocol: The tissue specific uptake of Evans Blue (EB, a fluorescent dye) has been investigated in a mouse model. Under physiologic conditions, the endothelium is impermeable to albumin, and Evans blue bound albumin remains confined within blood vessels. Thus, Evans blue is often used as a model compound in drug delivery studies [Bohmer et al., J Controlled Release, 148, Issue 1, 2010, pp. 18-24].
Female Balb/c nude mice were used. Before treatment, the mice were administered surgical anesthesia by subcutaneous injection of a mix of Fentanyl (0.05 mg/kg), Midazolam (5 mg/kg), and Medetomidine (0.5 mg/kg). An intravenous cannula (BD Neoflon™ 24 GA) was placed in the tail vein. Patency was verified by injection of a slight amount of 0.9% sodium chloride for injection after which a small amount of heparin (10 U/ml) was injection to prevent clotting. The hub of the cannula was filled with 0.9% sodium chloride for injection to eliminate any dead space and closed with a cap. The cannula was secured to the tail with surgical tape.
Evans Blue solution (50 mg EB/kg) was injected i.v. followed immediately by 2 ml/kg of the cluster dispersion as detailed in Example 1. Two groups where compared (N=3 for each group): 1) EB+cluster dispersion and 2) EB+cluster dispersion+Activation and Enhancement ultrasound insonation.
The left hind limb of the mouse was placed in a water bath with two US transducers poised for insonation of the left thigh. Ultrasound Activation insonation was provided by a VScan clinical ultrasound scanner (GE Healthcare) with a 2 MHz probe for 45 seconds (MI=0.8) starting from the injection time. This was immediately followed by the Enhancement step comprising 5 minutes 500 kHz ultrasound insonation (MI=0.2) using a single element transducer (Imasonic SAS). Thirty minutes after treatment the animals were sacrificed, tissue samples; thigh muscle from the treated (left) leg and thigh muscle from the contra lateral untreated leg, were harvested and Evans Blue content extracted and quantified. The concentration in the treated thigh muscle was divided by the concentration in the untreated thigh muscle for each animal (matched pair) to provide a dimensionless ratio of the increased uptake in the treated muscle. A one-way ANOVA was applied to the data.

C[C@H]1COc2c(N3CCN(C)CC3)c(F)cc3c(=O)c(C(=O)O)cn1c23 [LEV, Levofloxacin]
ED50 [1]: ~24 mg/kg

O=C(Nc1ccc([N+](=O)[O-])cc1Cl)c1cc(Cl)ccc1O [Niclosamide]
cure rates [2]: approximately 90%

Cc1cc(-c2ccc(/N=N/c3ccc4c(S(=O)(=O)O)cc(S(=O)(=O)O)c(N)c4c3O)c(C)c2)ccc1/N=N/c1ccc2c(S(=O)(=O)O)cc(S(=O)(=O)O)c(N)c2c1O [EB, Evans Blue]
EB ratio of the left (treated) to right (untreated) thigh muscle, average±SD ([3]; EB 50 mg/kg i.v. + cluster dispersion 2 ml/kg + Activation and Enhancement US insonation): 2.0±0.3 | EB ratio of the left (treated) to right (untreated) thigh muscle, average±SD ([3]; EB 50 mg/kg i.v. + cluster dispersion 2 ml/kg, no US insonation): 1.1±0.2 | increase in the uptake upon ACT treatment [3]: about 100% | increase in the uptake upon ACT treatment ([3]; listed as Evans Blue): 100%
